Tests used:
[1] = tested on: fatty liver induced by ethionine; experiment: Effect on Fatty Liver (ethionine); assay type: in vivo, mouse (dd-strain); conditions: 24 h, 10 animals
Source text: But, the fatty liver is grouped into a couple of patterns from the mechanism of lipid accumulation or metabolism of lipoprotein in the liver. Ethionine is a typical example which induces first pattern of fatty liver. It inhibits RNA and protein synthesis and destructs polysome of the liver cell. Fatty liver is induced by inhibition of the protein synthesis and disturbance of lipoprotein secretion.
Usually, fatty liver is closely related to the accumulation of triglyceride in the liver. In the present example, the degree of fatty liver and protective or therapeutic effect against the fatty liver was evaluated by measurement of triglyceride content in the liver. Methods:
The compounds of this invention and methionine were independently dissolved or suspended into olive oil and administered orally to 4 week-old male mouse (dd-strain) at the dose of 250 mg/kg. One hour before it, simultaneously to it, or one hour after it, ethionine dissolved in equimolar NaOH solution was administered intraperitoneally at the dose of 200 mg/kg. Twenty four hours after the administration of ethionine, the animals were sacrificed and triglyceride content in the liver was determined by chromotropic acid method.

[2] = tested on: acute liver damage induced by carbon tetrachloride; experiment: Protective Effect on Acute Liver Damage associated with Centrilobular Necrosis (carbon tetrachloride); assay type: in vivo, mice (dd-strain); conditions: 250 mg/kg oral, average of 5 to 6 mice; for Liver damage index: 6 h before CCl4 (0.05 ml/kg oral), score 0 Normal, 2 slight, 4 clear, 6 heavy damage; for p-GPT (plasma glutamic-pyruvic transaminase activity): 6 h before CCl4, 24 h after CCl4, values over 1,000 regarded as 1,000
Source text: Carbon tetrachloride (CCl4) administration induces centrilobular necrosis of the liver associated with loss of diphosphopyridine nucleotide, hepatic glycogen, coenzyme A and increase in neutral fat. Release of several enzymes from the hepatocytes, and increase of enzyme activities in the plasma are recognized as the result of the damage of the liver. A suitable means for evaluating the degree of damage induced by CCl4 or the degree of protection afforded by drugs is to study the plasma glutamic-pyruvic transminase (p-GPT) activity.
Methods: The test compounds were dissolved or suspended in olive oil and administered orally at the dose of 250 mg/kg to the mice (Four-week-old male mice-dd strain). After 6 hours, CCl4 was administered orally (0.05 ml/kg as olive oil solution). Animals were killed 24 hours after CCl4 administration, and the liver was grossly observed. The plasma was obtained by centrifugation. Activities of p-GPT were determined by the method of Reitman and Frankel and expressed in Karmen units.
Score for liver damage index was as follows:
4 Clearly observable damage
Each figure indicates average of 5 to 6 mice. Values of p-GPT over 1,000 Karmen unit regarded as 1,000 for calculation of average for convenience.

[3] = tested on: acute hepatitis induced by D-galactosamine; experiment: Protective Effect on Acute Hepatitis associated with Mesenchymal Reaction and Discrete Lobular Necrosis (D-galactosamine); assay type: in vivo, rat (SD strain); conditions: 100 mg/kg oral, 6 h before D-galactosamine 600 mg/kg i.p. (+ 300 mg/kg)
Experimental: D-Galactosamine is a compound which induces a discrete lobular necrosis associated with mesenchymal reaction similar to the change observed in human viral hepatitis, so that it is frequently used in producing a model for viral hepatitis.
The compound of this invention or anethol trithion was administered orally to the male rat (SD strain) at the dose of 100 mg/kg. Six hours after it, D-galactosamine was intraperitoneally administered at the dose of 600 mg/kg. Four hours after it, an additional 300 mg/kg was administered intraperitoneally. Eight hours after it, the animals were sacrificed to collect the blood samples. P-GPT activity and triglyceride in the liver were measured to evaluate the effect of the compound of this invention.

[4] = tested on: excretion of biliary salt; experiment: Cholagogic Action: effect on the excretion of biliary salt; assay type: in vivo, rats (SD-JCL strain); conditions: 200 mg/kg oral, before treatment = 100
Experimental: (§1) Drugs as choleresis are used for patients to improve bile flow. In the present example, the effect of the compound of the invention on the quantities of bile and biliary salt is investigated. Methods:
(§2) The male rats (4 week-aged, SD-JCL strain) were anesthetized with sodium pentobarbital (37.5 mg/kg, intraperitoneal injection). The abdominal cavity was opened through a midline incision. The common bile duct was catheterized with polyethylene tube o.d. 0.8 mm. The catheter was brought to the outside through the abdominal incision would prior to closing. Bile was collected from the catheter continuously with time intervals of one hour. The quantity of bile produced in one hour was determined by weighing and that of biliary salt was determined by enzymatic method (Ikagaku Jikkenho Koza 1B, Biological Constituents II, edited by Tamio YAMAKAWA). The amount of biliary salt was represented in the term of cholic acid equivalent.
(§3) In the representation of the results, the quantities of bile and biliary salt produced in one hour prior to the administration of drug were taken as 100. The compound of this invention was orally administered at the dose of 200 mg/kg. As reference, anethol trithion was used.

[5] = tested on: bile flow; experiment: Cholagogic Action: effect on bile flow; assay type: in vivo, rats (SD-JCL strain); conditions: 200 mg/kg oral; for Bile flow: before treatment = 100
Experimental: as §1, §2, §3

[6] = tested on: acute liver damage induced by allyl alcohol; experiment: Protective Effect on Acute Liver Damage associated with Periportal Necrosis (allyl alcohol), BSP test; assay type: in vivo, mouse (dd-strain); conditions: 100 mg/kg oral, 6 h before allyl alcohol (0.075 mg/kg oral); 24 h
Experimental: The compund of this invention or anethol trithion was orally administered to the male mouse (4 week-old, dd-strain) at the dose of 100 mg/kg. Six hours after it, allyl alcohol was orally administered at the dose of 0.075 mg/kg. Twenty four hours after it, the animals were sacrificed to collect blood samples.

[7] = tested on: chronic liver damage induced by thioacetamide; experiment: Therapeutic Effect on Chronic Liver Damage (thioacetamide), BSP test; assay type: in vivo, rats (Spraque Dawley strain); conditions: normal diet + 0.2% of compound after 12 times TAA 100 mg/kg
Experimental: In the tests of this Example, TAA was repeatedly administered to animals to prepare test animals suffering from somewhat chronic liver damages, and then the present compounds were administered thereto to know whether or not the compounds were effective against chronic hepatitis.
The degree of the liver damage and the therapeutic effects of the compounds were evaluated according to BSP test. The BSP test is a method in which BSP (sulfobromophthalein sodium), a dye known to be quickly metabolized in and excreted from the liver, is intravenously injected into animals and, after a definite period of time, the blood is taken out to measure the amount of BSP remaining in the plasma. In case the animals are suffering from the lever damage, the dye will remain, according to the degree of the damage, at the stage where a major portion of BSP metabolized and excreted in the case of normal animals.
Five groups of rats (Spraque Dawley strain) were treated as follows:
Group A: The rats were orally administered with 100 mg/kg of thioacetamide,at 3 days intervals for 36 days (12 times of the administration), then were submitted for 10 days to a normal diet.
Group B: The rats were orally administered with 100 mg/kg of thioacetamide at 3 days intervals for 36 days (12 times of the administration), then were submitted for 10 days to the normal diet + 0.2% of compound 4.
Group C: The rats were orally administered with 100 mg/kg of thioacetamide at 3 days intervals for 36 days (12 times of the administration), then were submitted for 10 days to the normal diet + 0.2% of compound 2.
Group D: The rats were orally administered with 100 mg/kg of thioacetamide at 3 days intervals for 36 days (12 times of the administration), then were submitted for 10 days to the normal diet + 0.2% of anethol trithion.
Group E: The rats were submitted to the normal diet as the control.
Five rats were sacrificed from each group at appropriate intervals for BSP (sulfobromophthalein) test, the results of which were shown as amounts (mg) of BSP remaining in 1 dl of plasma.

[8] = tested on: fatty liver induced by carbon tetrachloride; experiment: Therapeutic Effect on Fatty Liver (carbon tetrachloride); assay type: in vivo, rats (SD strain)
Experimental: Methods: […] The treated animals were left for 3 days after the last administration to maximize the manifestation of fatty liver. […] It was orally given everyday for 10 days at the dose of 50 or 250 mg/kg. On the 11th day, the animals were sacrificed. The therapeutic effect was evaluated by determining the content of liquid in the liver (triglyceride and total lipid) and examining the histopathological changes. Triglyceride and total lipid were determined colorimetrically by chromotropic acid method and Bragdon's oxidation method, respectively. Indices for the histopathological change is as follows: […]

Work on `CCSCC[C@H](N)C(=O)O` [Ethionine, reference compound] yielded a Triglyceride ([1]; ethionine alone (positive control), 200 mg/kg i.p.) of 15.6 ± 1.34 mg/g-liver.
With `CCC(=O)OC1CSC(=C(C(=O)OC(C)C)C(=O)OC(C)C)S1` (centres unmarked) [Compound 8, Diisopropyl 4-propionyloxy-1,3-dithiolan-2-ylidene malonate] the Liver damage index [2] was 0.6 and the “p-GPT (plasma glutamic-pyruvic transaminase activity)” value [2] was 62 Karmen units.
With `COc1ccc(-c2cc(=S)ss2)cc1` [Anethol trithion, reference compound] the Triglyceride in liver [3] was 9.2 ± 1.5 mg/g, the p-GPT [3] was 106 ± 30 Karmen unit and the “Excretion of biliary salt” value ([4]; 1 hour after treatment) was 108 ± 12. The “Excretion of biliary salt” value ([4]; 2 hours after treatment) was 89 ± 11, the “Excretion of biliary salt” value ([4]; 3 hours after treatment) was 66 ± 3.8 and the “Excretion of biliary salt” value ([4]; 4 hours after treatment) was 47 ± 3.0. For the same molecule, the “Excretion of biliary salt” value ([4]; 5 hours after treatment) was 3.3 ± 4.0, the Liver damage index [2] was 1.6 and the “p-GPT (plasma glutamic-pyruvic transaminase activity)” value [2] was 38 Karmen units. The Bile flow ([5]; 1 hour after treatment) was 114 ± 15, the Bile flow ([5]; 2 hours after treatment) was 114 ± 15 and the Bile flow ([5]; 3 hours after treatment) was 102 ± 11. For the same molecule, the Bile flow ([5]; 4 hours after treatment) was 95 ± 7.7, the “Quantity of total excreted bile relative to control” value ([5]; 5 hours after administration) was 1.10 times and the Bile flow ([5]; 5 hours after treatment) was 86 ± 6.6. For the same molecule, the “BSP (residual quantity)” value [6] was 19.3 ± 4.6, the “BSP remaining in plasma” value ([7]; 2 days) was 9.7 ± 4.1 mg/dL and the “BSP remaining in plasma” value ([7]; 5 days) was 7.3 ± 3.4 mg/dL. For the same molecule, the “BSP remaining in plasma” value ([7]; 10 days) was 0.9 ± 0.1 mg/dL.
With `CCOC(=O)C(C(=O)OCC)=C1SCC(OC(C)=O)S1` (centres unmarked) [Compound 5, Diethyl 4-acetoxy-1,3-dithiolan-2-ylidene malonate] the Liver damage index [2] was 1.2 and the “p-GPT (plasma glutamic-pyruvic transaminase activity)” value [2] was 106 Karmen units.
For `CC(C)COC(=O)C(C(=O)OCC(C)C)=C1SCC(O)S1` (centres unmarked) [Compound 3, Diisobutyl 4-hydroxy-1,3-dithiolan-2-ylidene malonate], the Liver damage index [2] was 0.3 and the “p-GPT (plasma glutamic-pyruvic transaminase activity)” value [2] was 52 Karmen units.
`CCOC(=O)C(C(=O)OCC)=C1SCC(OC(=O)CC)S1` (centres unmarked) [Compound 6, Diethyl 4-propionyloxy-1,3-dithiolan-2-ylidene malonate] was tested, and the Liver damage index [2] was 1.4 and the “p-GPT (plasma glutamic-pyruvic transaminase activity)” value [2] was 210 Karmen units.
`ClC(Cl)(Cl)Cl` [Carbon tetrachloride, reference compound] was tested, and the Liver damage index [2] was 5.2 and the “p-GPT (plasma glutamic-pyruvic transaminase activity)” value [2] was > 1,000 Karmen units.
With `CCCOC(=O)C(C(=O)OCCC)=C1SCC(OC(C)=O)S1` (centres unmarked) [Compound 9, Di-n-propyl-4-acetoxy-1,3-dithiolan-2-ylidene malonate] the Liver damage index [2] was 0.8 and the “p-GPT (plasma glutamic-pyruvic transaminase activity)” value [2] was 102 Karmen units.
In the case of `NC(=O)CCCCC1CCSS1` (centres unmarked) [Thioctic acid amide, reference compound], the Liver damage index [2] is reported as 4.8 and the “p-GPT (plasma glutamic-pyruvic transaminase activity)” value [2] is reported as 763 Karmen units.
Work on `CSCC[C@H](N)C(=O)O` [Methionine, reference compound] yielded a Triglyceride ([1]; 250 mg/kg oral, simultaneous with ethionine (0 hr)) of 10.8 ± 0.88 mg/g-liver, a Total lipid ([8]; 250 mg/kg oral, 10 days) of 156.8 ± 23.8 mg/g-liver and a Triglyceride ([8]; 250 mg/kg oral, 10 days) of 42.7 ± 7.2 mg/g-liver. For the same molecule, the “therapeutic effect on fatty liver (in words)” value ([8]; 50 or 250 mg/kg oral) was “hardly exhibited a therapeutic effect” and the “Degree of fatty liver (histopathological examination)” value ([8]; dose not printed in Table 8, one symbol per animal) was “± ± ++ ++ ++ + +”.
`CC(=O)OC1CSC(=C(C(=O)OC(C)C)C(=O)OC(C)C)S1` (centres unmarked) [Compound 7, Diisopropyl 4-acetoxy-1,3-dithiolan-2-ylidene malonate] was tested, and the Liver damage index [2] was 0.4 and the “p-GPT (plasma glutamic-pyruvic transaminase activity)” value [2] was 80 Karmen units.
